# Test results published in patent US20240041877A1, “DOSAGE REGIME AND METHOD FOR TREATING PULMONARY ARTERIAL HYPERTENSION” (Altavant Sciences GmbH, priority 2019, published 2024).
# Assay: Study KAR5585-101 Part 1 (SAD): plasma pharmacokinetics after a single oral dose of KAR5585, fasting and fed (incl. dose proportionality and food effect)
# Conditions: for half-life / AUC / AUC(0-inf) / Cmax / Vd/F / Tmax: human, po; for AUC: AUC0-tau; for Vd/F: Vz/F; for Tmax: Median
# [1] = 100 mg KAR5585 single oral, fasted, Cohort 1, Geo. Mean
# [2] = 100 mg KAR5585 single oral, fasted, Cohort 1, Mean
# [3] = 200 mg KAR5585 single oral, fasted, Cohort 2, Geo. Mean
# [4] = 200 mg KAR5585 single oral, fasted, Cohort 2, Mean
# [5] = 400 mg KAR5585 single oral, fasted, Cohort 3A, Geo. Mean
# [6] = 400 mg KAR5585 single oral, fasted, Cohort 3A, Mean
# [7] = 400 mg KAR5585 single oral, fed, Cohort 3B, Geo. Mean
# [8] = 400 mg KAR5585 single oral, fed, Cohort 3B, Mean
# [9] = 700 mg KAR5585 single oral, fasted, Cohort 4, Geo. Mean
# [10] = 700 mg KAR5585 single oral, fasted, Cohort 4, Mean
# [11] = 1200 mg KAR5585 single oral, fasted, Cohort 5, Geo. Mean
# [12] = 1200 mg KAR5585 single oral, fasted, Cohort 5, Mean
# [13] = 2000 mg KAR5585 single oral, fasted, Cohort 6, Geo. Mean
# [14] = 2000 mg KAR5585 single oral, fasted, Cohort 6, Mean
# [15] = 100 to 2000 mg KAR5585 single oral dose, fasting, plasma analyte = label
# [16] = plasma, 100 mg, 100 mg KAR5585 single oral, fasted, Cohort 1, Geo. Mean
# [17] = plasma, 100 mg, 100 mg KAR5585 single oral, fasted, Cohort 1, Mean
# [18] = plasma, 200 mg, 200 mg KAR5585 single oral, fasted, Cohort 2, Geo. Mean
# [19] = plasma, 200 mg, 200 mg KAR5585 single oral, fasted, Cohort 2, Mean
# Experimental: Food effect was to be evaluated in Part 1, Period 2. Part 2 was permitted to begin before Part 1 was completed and, in each part, the data from each dose Cohort were to be reviewed for safety before the next dose Cohort was enrolled.
# Part 1 had 6 Cohorts of 12 subjects each (for a total of 72 subjects) and Part 2 had 4 Cohorts of 12 subjects each (for a total of 48 subjects). In Part 1, the 12 subjects in Cohort 3 (400 mg)were studied twice, once under fasting conditions (Period 1) and once under fed conditions (Period 2) for food-effect assessment.
# Pharmacokinetic data were to be summarized descriptively.
compound,measurement,setting,value
"CCOC(=O)[C@@H]1CC2(CCN(c3cc(O[C@H](c4ccc(Cl)cc4-c4ccccc4)C(F)(F)F)nc(N)n3)CC2)CN1 [KAR5585, (S)-ethyl 8-(2-amino-6-((R)-1-(5-chloro-[1,1′-biphenyl]-2-yl)-2,2,2-trifluoroethoxy)pyrimidin-4-yl)-2,8-diazaspiro[4.5]decane-3-carboxylate]",AUC0-24/D,[1],0.475 (hr*ng/ml)/mg
same,C12,[1],BLQ
same,CL/F,[1],2110 L/h
same,Cmax/D,[1],0.132 (ng/mL)/mg
same,AUC0-24/D,[2],0.496 (hr*ng/ml)/mg
same,C12,[2],BLQ
same,CL/F,[2],2210 L/h
same,Cmax/D,[2],0.139 (ng/mL)/mg
same,AUC0-24/D,[3],0.467 (hr*ng/ml)/mg
same,C12,[3],BLQ
same,CL/F,[3],2100 L/h
same,Cmax/D,[3],0.0875 (ng/mL)/mg
same,AUC0-24/D,[4],0.485 (hr*ng/ml)/mg
same,C12,[4],BLQ
same,CL/F,[4],2220 L/h
same,Cmax/D,[4],0.0961 (ng/mL)/mg
same,AUC0-24/D,[5],0.707 (hr*ng/ml)/mg
same,CL/F,[5],1390 L/h
same,Cmax/D,[5],0.105 (ng/mL)/mg
same,AUC0-24/D,[6],0.742 (hr*ng/ml)/mg
same,CL/F,[6],1480 L/h
same,Cmax/D,[6],0.132 (ng/mL)/mg
same,AUC0-24/D,[7],2.19 (hr*ng/ml)/mg
same,CL/F,[7],443 L/h
same,Cmax/D,[7],0.413 (ng/mL)/mg
same,AUC0-24/D,[8],2.21 (hr*ng/ml)/mg
same,CL/F,[8],449 L/h
same,Cmax/D,[8],0.422 (ng/mL)/mg
same,AUC0-24/D,[9],0.584 (hr*ng/ml)/mg
same,CL/F,[9],1700 L/h
same,Cmax/D,[9],0.136 (ng/mL)/mg
same,AUC0-24/D,[10],0.617 (hr*ng/ml)/mg
same,CL/F,[10],1810 L/h
same,Cmax/D,[10],0.142 (ng/mL)/mg
same,AUC0-24/D,[11],0.333 (hr*ng/ml)/mg
same,CL/F,[11],2960 L/h
same,Cmax/D,[11],0.0568 (ng/mL)/mg
same,AUC0-24/D,[12],0.378 (hr*ng/ml)/mg
same,CL/F,[12],3850 L/h
same,Cmax/D,[12],0.0692 (ng/mL)/mg
same,AUC0-24/D,[13],0.348 (hr*ng/ml)/mg
same,CL/F,[13],3000 L/h
same,Cmax/D,[13],0.0475 (ng/mL)/mg
same,AUC0-24/D,[14],0.403 (hr*ng/ml)/mg
same,CL/F,[14],3820 L/h
same,Cmax/D,[14],0.0522 (ng/mL)/mg
same,"Dose proportionality power model, AUC0-12: Intercept estimate",[15],1.51
same,"Dose proportionality power model, AUC0-inf: Intercept estimate",[15],1.46
same,"Dose proportionality power model, AUC0-tau: Intercept estimate",[15],0.258
same,"Dose proportionality power model, Cmax: Intercept estimate",[15],0.534
same,half-life,"in vivo, 200 mg",3.17 h
same,AUC,[16],27.4 ng·h/mL
same,AUC,[17],35 ng·h/mL
same,AUC(0-inf),"plasma, 100 mg, AUC0-∞, 100 mg KAR5585 single oral, fasted, Cohort 1, Geo. Mean",47.5 ng·h/mL
same,AUC(0-inf),"plasma, 100 mg, AUC0-∞, 100 mg KAR5585 single oral, fasted, Cohort 1, Mean",49.5 ng·h/mL
same,Cmax,[16],13.2 ng/mL
same,Cmax,[17],13.9 ng/mL
same,Vd/F,[16],5190 L
same,Vd/F,[17],5680 L
same,half-life,"plasma, 100 mg, t1 (t½, apparent terminal half-life), 100 mg KAR5585 single oral, fasted, Cohort 1, Geo. Mean",1.71 h
same,half-life,"plasma, 100 mg, t1 (t½, apparent terminal half-life), 100 mg KAR5585 single oral, fasted, Cohort 1, Mean",1.89 h
same,Tmax,"plasma, 100 mg, 100 mg KAR5585 single oral, fasted, Cohort 1",1.5 h
same,AUC,[18],52 ng·h/mL
same,AUC,[19],61.4 ng·h/mL
same,AUC(0-inf),"plasma, 200 mg, AUC0-∞, 200 mg KAR5585 single oral, fasted, Cohort 2, Geo. Mean",95.3 ng·h/mL
same,AUC(0-inf),"plasma, 200 mg, AUC0-∞, 200 mg KAR5585 single oral, fasted, Cohort 2, Mean",99.5 ng·h/mL
same,Cmax,[18],17.5 ng/mL
same,Cmax,[19],19.2 ng/mL
same,Vd/F,[18],9610 L
same,Vd/F,[19],10300 L
same,half-life,"plasma, 200 mg, t1 (t½, apparent terminal half-life), 200 mg KAR5585 single oral, fasted, Cohort 2, Mean",3.63 h
same,Tmax,"plasma, 200 mg, 200 mg KAR5585 single oral, fasted, Cohort 2",1.78 h
same,AUC(0-inf),"plasma, 400 mg, AUC0-inf, Geometric Mean, Cohort 3A (Fasting), 400 mg KAR5585 single oral dose, fasting",288 ng·h/mL
same,AUC(0-inf),"plasma, 400 mg, AUC0-inf, Geometric Mean, Cohort 3B (Fed), 400 mg KAR5585 single oral dose, fed",903 ng·h/mL
same,AUC,"plasma, 400 mg, 400 mg KAR5585 single oral, fasted, Cohort 3A, Geo. Mean",176 ng·h/mL
